Assay results published in EPA's ToxValDB 9.5.
Where “and” joins values, the source holds several entries; their conditions need not be identical. Equal values may be shown once.

Experiments:
[1] = test system: Rattus norvegicus; settings: short-term, duration: 28 days, oral, gavage
[2] = test system: Canidae; settings: chronic, oral, M/F, Dog Other
[3] = test system: Mus musculus; settings: oral, CD1
[4] = test system: Gallus sp.; settings: repeat dose other; oral
[5] = test system: Rattus norvegicus; settings: repeat dose other; oral
[6] = test system: Homo sapiens; settings: clinical; duration: 12 months; oral; Change in gut flora
[7] = test system: Rattus norvegicus; settings: chronic; duration: 27 weeks; oral; diet; Liver: Lesions
[8] = test system: Rattus norvegicus; settings: chronic; duration: 27 weeks; oral; diet; M/F; liver lesions
[9] = test system: Mus musculus; settings: developmental; duration: 14 days; oral; gavage; M; NMRI; developmental
[10] = test system: Mus musculus; settings: uterotrophic, injection, Active
[11] = test system: Rattus norvegicus; settings: uterotrophic, Active
[12] = test system: Pelecanus occidentalis; settings: oral
[13] = test system: Canidae; settings: chronic; duration: 2 years; oral; diet; Dog Other; Central nervous system: Convulsions + Liver: Lesions
[14] = test system: Canidae; settings: chronic; duration: 2 years; oral; diet; F; Beagle; neurological, hepatic
[15] = test system: Mus musculus; settings: repeat dose other; oral
[16] = test system: Megascops sp.; settings: oral
[17] = test system: Oryctolagus sp.; settings: acute; dermal; New Zealand
[18] = test system: Rattus norvegicus; settings: acute; oral; gavage; Sprague-Dawley
[19] = test system: Oryctolagus sp.; assay: LD0; higher = less toxic; settings: acute; dermal; New Zealand
[20] = test system: Rattus norvegicus; assay: LD0; higher = less toxic; settings: acute; oral; gavage
[21] = duration: 2 years, diet, reduced body weight gain, and increased liver and kidney weight
[22] = M, Sprague-Dawley, Functional Observational Battery: No urination (week1) + Body Weight Changes: decrease + Food Consumption: decrease + Urinalysis: Volume …
[23] = histological lesions in liver, occasional convulsions

c1ccc(Nc2ccccc2)cc1 [Diphenylamine]
NOEL ([1]; M/F, Fischer 344, Clinical Observation: Dark brown colored bedding + Body Weight Changes: Weight gain decrease + Food Consumption: decrease + Hematology: RBC …): 111 mg/kg-day | LEL [2, 21]: 25 mg/kg-day | NOEL [2, 21]: 2.5 mg/kg-day | NOAEL ([3]; subchronic, duration: 90 days, diet, M/F): 2.1 mg/kg-day

[Ba+2].[OH-].[OH-] [Barium hydroxide]
LOAEL [4]: 41.7 mg/kg-day | NOAEL [4]: 20.8 mg/kg-day | LOAEL [5]: 19.8 mg/kg-day

CCC[C@@H]1C[C@@H](C(=O)N[C@@H]([C@H]2O[C@H](SC)[C@H](O)[C@@H](O)[C@H]2O)[C@@H](C)O)N(C)C1 [Lincomycin]
NOEL [6]: 2.5 mg/kg-day

CN(C)N=O [N-Nitrosodimethylamine]
NOAEL [1, 22]: < 0.8 mg/kg-day | NOEL [1, 22]: < 0.8 mg/kg-day | LOAEL ([3]; developmental, duration: 100 days, drinking water, F, developmental): 0.025 mg/kg-day

Clc1ccc(C(c2ccc(Cl)cc2)C(Cl)(Cl)Cl)cc1 [DDT]
NOEL [7]: 0.05 mg/kg-day | LOAEL [8]: 0.39 mg/kg-day | NOEL [8]: 0.05 mg/kg-day | LOAEL [9]: 0.5 mg/kg-day | LEL ([10]; duration: 3 days, intraperitoneal): 100 mg/kg-day | LEL ([10]; duration: 3 days, subcutaneous): 1000 mg/kg-day | LEL ([10]; duration: 5 days, subcutaneous): 10 mg/kg-day | LEL ([11]; duration: 1 days, injection, intraperitoneal): 12.5 mg | LEL ([11]; duration: 3 days, injection, intraperitoneal): 4 mg | LEL ([11]; duration: 3 days, oral): 100 mg/kg-day | LOAEL [5]: 4 mg/kg-day | NOAEL [5]: 0.8 mg/kg-day | LOAEL [12]: 0.028 mg/kg-day | NOAEL [12]: 0.0028 mg/kg-day

ClC1=C(Cl)[C@]2(Cl)[C@@H]3[C@H]4C[C@H]([C@@H]5O[C@H]45)[C@@H]3[C@@]1(Cl)C2(Cl)Cl [Endrin]
NOEL [13]: 0.025 mg/kg-day | LOAEL [2, 23]: 0.05 mg/kg-day | NOEL [2, 23]: 0.025 mg/kg-day | NOAEL [14]: 0.025 mg/kg-day | LOAEL [15]: 0.92 mg/kg-day | NOAEL [15]: 0.092 mg/kg-day | LOAEL [16]: 0.1 mg/kg-day | NOAEL [16]: 0.01 mg/kg-day

CCCCC(CC)COP(=O)(O)O (configuration not stated) [2-Ethylhexyl dihydrogen phosphate]
LD50 [17]: > 4640 mg/kg | LD50 [18]: 4100 mg/kg and 2710 mg/kg | LD0 [19]: 11300 mg/kg | LD0 [20]: 3640 mg/kg
